Results: patent US10550105B2 (Ribon Therapeutics Inc., priority 2018, dated 2020)

Experiments:
[1] = test system: interferon-beta (IFN-β); test: Induction of interferon-beta levels in CT26 cells in the presence of STING agonist DMXAA (FIG. 3); format: cell-based; conditions: CT26 mouse colon cancer cells
[2] = test system: ACC-MESO-1; test: Growth inhibition of cancer cell lines, 144 hours (CellTiter-Glo); format: cell-based; conditions: mesothelioma
Method: (§1) Example C: Inhibition of Cancer Cell Growth by Treatment with PARP7 Inhibitors
(§2) Table A-2 and Table A-3 (below) represents the concentration that causes 50% growth inhibition (GI50) in a panel of cancer cell lines with Compound 18B and Compound 561. Cells were plated into 384-well plates at a pre-specified density in fetal bovine serum-containing media. Cells were treated with compound or vehicle (DMSO) 24 hrs later, and a day zero plate was collected for analysis. Test compound plates were incubated continuously for 72 hrs (Table A-2) or 144 hours (Table A-3) cell growth was assessed using a luminescent cell viability assay (CellTiter-Glo, Promega). The GI50was determined by correcting for the cell count at time zero (time of treatment) and plotting data as percent growth relative to vehicle-treated cells.

[3] = test system: AGS; test: as above; format: cell-based; conditions: Homo sapiens, gastric adenocarcinoma
Method: as §1, §2

[4] = test system: COLO 680N; test: as above; format: cell-based; conditions: Homo sapiens, esophageal squamous cell carcinoma
Method: as §1, §2

[5] = test system: COR-L105; test: as above; format: cell-based; conditions: Homo sapiens, lung adenocarcinoma
Method: as §1, §2

[6] = test system: Caki-1; test: as above; format: cell-based; conditions: Homo sapiens, clear cell renal cell carcinoma
Method: as §1, §2

[7] = test system: GCT; test: as above; format: cell-based; conditions: Homo sapiens, undifferentiated pleiomorphic sarcoma
Method: as §1, §2

[8] = test system: H4; test: as above; format: cell-based; conditions: neuroglioma
Method: as §1, §2

[9] = test system: HCC1954; test: as above; format: cell-based; conditions: Homo sapiens, ductal breast carcinoma
Method: as §1, §2

[10] = test system: HCC827; test: as above; format: cell-based; conditions: Homo sapiens, lung adenocarcinoma
Method: as §1, §2

[11] = test system: IA-LM; test: as above; format: cell-based; conditions: large cell lung carcinoma
Method: as §1, §2

[12] = test system: KALS-1; test: as above; format: cell-based; conditions: Homo sapiens, glioblastoma
Method: as §1, §2

[13] = test system: KMRC-3; test: as above; format: cell-based; conditions: clear cell renal carcinoma
Method: as §1, §2

[14] = test system: MCAS; test: as above; format: cell-based; conditions: ovarian mucinous cystadenocarcinoma
Method: as §1, §2

[15] = test system: MDA-MB-468; test: as above; format: cell-based; conditions: Homo sapiens, breast adenocarcinoma
Method: as §1, §2

[16] = test system: MSTO-211H; test: as above; format: cell-based; conditions: Homo sapiens, biphasic mesothelioma
Method: as §1, §2

[17] = test system: NCI-H1373; test: as above; format: cell-based; conditions: Homo sapiens, lung adenocarcinoma
Method: as §1, §2

[18] = test system: NCI-H1437; test: as above; format: cell-based; conditions: Homo sapiens, lung adenocarcinoma
Method: as §1, §2

[19] = test system: NCI-H1648; test: as above; format: cell-based; conditions: Homo sapiens, lung adenocarcinoma
Method: as §1, §2

[20] = test system: NCI-H1944; test: as above; format: cell-based; conditions: Homo sapiens, lung adenocarcinoma
Method: as §1, §2

[21] = test system: NCI-H1963; test: as above; format: cell-based; conditions: Homo sapiens, small cell lung carcinoma
Method: as §1, §2

[22] = test system: NCI-H2009; test: as above; format: cell-based; conditions: Homo sapiens, lung adenocarcinoma
Method: as §1, §2

[23] = test system: NCI-H2347; test: as above; format: cell-based; conditions: Homo sapiens, lung adenocarcinoma
Method: as §1, §2

[24] = test system: NCI-H441; test: as above; format: cell-based; conditions: Homo sapiens, papillary adenocarcinoma of the lung
Method: as §1, §2

[25] = test system: NCI-H647; test: as above; format: cell-based; conditions: Homo sapiens, lung adenosquamous carcinoma
Method: as §1, §2

[26] = test system: Panc 03.27; test: as above; format: cell-based; conditions: Homo sapiens, PANC-03-27, pancreatic adenocarcinoma
Method: as §1, §2

[27] = test system: SCC-25; test: as above; format: cell-based; conditions: Homo sapiens, tongue squamous cell carcinoma
Method: as §1, §2

[28] = test system: SCaBER; test: as above; format: cell-based; conditions: Homo sapiens, bladder squamous cell carcinoma
Method: as §1, §2

[29] = test system: SK-LU-1; test: as above; format: cell-based; conditions: Homo sapiens, lung adenocarcinoma
Method: as §1, §2

[30] = test system: SK-MEL-2; test: as above; format: cell-based; conditions: Homo sapiens, malignant melanoma
Method: as §1, §2

[31] = test system: SK-MES-1; test: as above; format: cell-based; conditions: Homo sapiens, squamous cell lung carcinoma
Method: as §1, §2

[32] = test system: SNU-840; test: as above; format: cell-based; conditions: malignant ovarian Brenner tumor
Method: as §1, §2

[33] = test system: SW900; test: as above; format: cell-based; conditions: Homo sapiens, squamous cell lung carcinoma
Method: as §1, §2

[34] = test system: T84; test: as above; format: cell-based; conditions: Homo sapiens, colon adenocarcinoma
Method: as §1, §2

[35] = test system: TYK-nu; test: as above; format: cell-based; conditions: high grade ovarian serious adenocarcinoma
Method: as §1, §2

[36] = test system: NCI-H1373 lung cancer xenograft; test: Inhibition of tumor growth by oral dosing, human NCI-H1373 lung cancer xenograft; format: in vivo; conditions: NCI-H1373 xenograft in SCID mice
Source text: Example H: Inhibition of Tumor Growth by Oral Dosing with a PARP7 Inhibitor
The effect of Compound 561 on tumor growth was studied in a human NCI-H1373 lung cancer xenograft and a murine CT26 colon cancer syngeneic model.
For the NCI-H1373 study, SCID mice were inoculated subcutaneously in the right flank with NCI-H1373 cells for tumor development. After 5 days of tumor growth, mice with 89-148 mm^3 tumors were randomized into treatment groups with mean tumor volumes of 121 mm^3. The treatments were started from the next day post randomization (defined randomization day as day 0) and were treated with vehicle (50% Labrasol) or Compound 561 (62.5, 125, 250, and 500 mg/kg) once a day for 28 days by oral gavage. Tumor volumes were determined by manual calipers every 2-3 days. Mean tumor volume and SEM are plotted. QD: once a day; PO: per oral administration. Statistical significance is calculated using two-way ANOVA followed by Bonferroni post-tests in which the treatment groups were compared to vehicle control (**** P<0.0001).

`N#Cc1ccc(N2CCN(C(=O)c3cccc(OC[C@@H]4c5ccccc5CN4c4cn[nH]c(=O)c4C(F)(F)F)c3)CC2)nc1` (single isomer, unassigned) [Example 18 Isomer B] was tested, and the “interferon-beta (IFN-β) levels” value [1] was “induction”.

Work on `C[C@@H](COCCC(=O)N1CCN(c2ncc(C(F)(F)F)cn2)CC1)Nc1cn[nH]c(=O)c1C(F)(F)F` [Example 561, 5-[[(2S)-1-(3-oxo-3-[4-[5-(trifluoromethyl)pyrimidin-2-yl]piperazin-1-yl]propoxy)propan-2-yl]amino]-4-(trifluoromethyl)-2,3-dihydropyridazin-3-one] yielded a GI50 [2] of no less than 1000 nM, a GI50 [3] of no less than 1000 nM and a GI50 [4] of no less than 1000 nM. For the same molecule, the GI50 [5] was 100 to 1000 nM, the GI50 [6] was less than 100 nM and the GI50 [7] was less than 100 nM. For the same molecule, the GI50 [8] was no less than 1000 nM, the GI50 [9] was no less than 1000 nM and the GI50 [10] was less than 100 nM. It also gave a GI50 [11] of less than 100 nM, a GI50 [12] of no less than 1000 nM and a GI50 [13] of no less than 1000 nM. It also gave a GI50 [14] of no less than 1000 nM, a GI50 [15] of no less than 1000 nM and a GI50 [16] of no less than 1000 nM. It also gave a GI50 [17] of less than 100 nM, a GI50 [18] of no less than 1000 nM and a GI50 [19] of no less than 1000 nM. The GI50 [20] was no less than 1000 nM, the GI50 [21] was no less than 1000 nM and the GI50 [22] was no less than 1000 nM. The GI50 [23] was less than 100 nM, the GI50 [24] was no less than 1000 nM and the GI50 [25] was less than 100 nM. For the same molecule, the GI50 [26] was less than 100 nM, the GI50 [27] was less than 100 nM and the GI50 [28] was no less than 1000 nM. The GI50 [29] was no less than 1000 nM, the GI50 [30] was no less than 1000 nM and the GI50 [31] was no less than 1000 nM. It also gave a GI50 [32] of no less than 1000 nM, a GI50 [33] of 100 to 1000 nM and a GI50 [34] of no less than 1000 nM. For the same molecule, the GI50 [35] was less than 100 nM, the tumor growth ([36]; 62.5, 125, 250 and 500 mg/kg once a day for 28 days by oral gavage, vs vehicle, P<0.0001 (FIG. 7A)) was “significantly reduces tumor growth” and the tumor regression ([36]; 62.5 to 500 mg/kg once a day for 28 days, all dose levels) was “complete tumor regression”.
